Measured values published in PubChem BioAssay AID488833 (Sanford-Burnham Center for Chemical Genomics, 2010).
Calls of active or inactive are those of the source.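 Rule for the calls: active = EC50 below a set limit; inactive = the rest.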

Biological target: Kappa-type opioid receptor (Homo sapiens) (UniProt P41145)
Test: kappa opioid receptor activation by imaging – image-based, set 3, SAR follow-up (AID 488833)
Settings: U2OS KOR beta-arrestin-GFP translocation imaging

Sequence of Kappa-type opioid receptor (Homo sapiens) (P41145 whole entry, looked up): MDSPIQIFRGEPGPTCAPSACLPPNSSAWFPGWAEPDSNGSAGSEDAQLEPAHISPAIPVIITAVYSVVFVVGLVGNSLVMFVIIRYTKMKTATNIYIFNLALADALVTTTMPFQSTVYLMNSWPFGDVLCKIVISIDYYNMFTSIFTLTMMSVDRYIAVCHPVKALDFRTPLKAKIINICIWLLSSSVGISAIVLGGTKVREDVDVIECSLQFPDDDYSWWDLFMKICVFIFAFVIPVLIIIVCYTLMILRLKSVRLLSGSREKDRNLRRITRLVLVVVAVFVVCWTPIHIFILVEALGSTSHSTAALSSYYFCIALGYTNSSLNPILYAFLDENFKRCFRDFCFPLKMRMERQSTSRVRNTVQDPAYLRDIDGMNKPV

EC50: inactive
SMILES: Cc1ccccc1CSc1nnc(-c2ccccn2)n1Cc1cccs1
